Measurements published in US4654326A, “Inhibition of plant viruses with oligonucleotides” (priority 1984, dated 1987).
Entries after “also recorded” stand apart in the source; their conditions may differ. Where two headings read alike, the source gives them in different places.

Columns and labels:
[1] = tested on: TMV; assay: Inhibition of TMV replication in intact N. glutinosa leaves (local lesion infectivity test); assay type: in vivo, tobacco mosaic virus; conditions: for inhibition at 1 µM: Tobacco mosaic virus, 48 h, read-out: Inhibition of TMV replication in N. glutinosa leaves; for Inhibition of TMV replication in N. glutinosa leaves: 1 × 10^-6 M in the infecting solution, 48 hours after infection (Table 3)
[2] = tested on: TMV; assay: TMV replication in TMV-infected tobacco leaf discs (ELISA); assay type: cell-based, tobacco mosaic virus; conditions: up to 2×10^-7 M (FIG. 1)
Procedure: Plant material treatment and measurement of infectivity. Partially purified AVF was prepared. The growth of N. glutinosa, N. tabacum Var. "Samsun", N. tabacum cv. Samsun NN, and preparation and inoculation of protoplasts were as described. To evaluate the effect of 2',5'-cores, nucleotides and nucleosides on TMV replication, various concentrations were added to 10 ml of protoplast suspension (1×10^5 cells/ml) at various times after inoculation with TMV. Protoplasts were incubated at 25° C. under continuous illumination of about 1500 Lx. At various times protoplasts were collected by centrifugation and homogenized. The homogenate was inoculated onto 12 half-leaves of N. glutinosa plants and compared to a standard solution of purified TMV on the opposite half-leaves. Lesion counts were adjusted to 10^6 live protoplasts and calibrated. Control protoplasts (no Nucleotides added) were assayed simultaneously. The assays for antiviral activity on TMV-infected tobacco leaf discs were done by enzyme-linked immunosorbent assay. The ability of the 2',5'-cores, nucleosides, and nucleotides to inhibit TMV replication in the intact plant was determined by infectivity tests as follows. […]
TMV-infected tobacco leaf discs, treatment and TMV determination. […] Discs were removed at various times after TMV inoculation and their TMV content was determined. […]

[3] = tested on: TMV; assay: Inhibition of TMV replication in tobacco protoplasts (homogenates assayed for local lesions); assay type: cell-based, tobacco mosaic virus; conditions: for inhibition at 0.1 µM: Tobacco mosaic virus, 1 × 10^-7 M, added within 3 hours of infection, average of four experiments
Procedure: Plant material treatment and measurement of infectivity. Partially purified AVF was prepared. The growth of N. glutinosa, N. tabacum Var. "Samsun", N. tabacum cv. Samsun NN, and preparation and inoculation of protoplasts were as described. To evaluate the effect of 2',5'-cores, nucleotides and nucleosides on TMV replication, various concentrations were added to 10 ml of protoplast suspension (1×10^5 cells/ml) at various times after inoculation with TMV. Protoplasts were incubated at 25° C. under continuous illumination of about 1500 Lx. At various times protoplasts were collected by centrifugation and homogenized. The homogenate was inoculated onto 12 half-leaves of N. glutinosa plants and compared to a standard solution of purified TMV on the opposite half-leaves. Lesion counts were adjusted to 10^6 live protoplasts and calibrated. Control protoplasts (no Nucleotides added) were assayed simultaneously. The assays for antiviral activity on TMV-infected tobacco leaf discs were done by enzyme-linked immunosorbent assay. The ability of the 2',5'-cores, nucleosides, and nucleotides to inhibit TMV replication in the intact plant was determined by infectivity tests as follows. Solutions containing 5 μg/ml TMV, 0.1 g carborundum (100 Tyler mesh), and 2',5'-cores, nucleosides, or nucleotides were applied onto 12 half-leaves of N. glutinosa. The remaining half-leaves were controls (inoculated with a solution containing no nucleotides). The infection was allowed to proceed 48 hours under continuous illumination.
the TMVinfected protoplasts within 3 hours of infection.
^b Average of four experiments.
by the 2',5cores, nucleosides and nucleotides was calculated as the
percent of local leasions produced in N. glutinosa treated by homogenates
of protoplasts compared to nontreated protoplasts.

[4] = tested on: N. glutinosa; assay type: in vivo; conditions: non-infected plants, 1×10^-6 M, two week period
Procedure: Effect of 2',5'-adenylate trimer core and its analogs on TMV replication in intact plants. […] The cores inhibited the formation of local lesions following TMV infection by 89-99% (Table 3). […] Non-infected plants were treated with 1×10^-6 M 2',5'adenylate trimer core, 2',5'-cordycepin trimer core, 2',5'-A-A-ara-A, and 2',5'-A-A-Tu (data not shown).

[5] = read-out: Inhibition of TMV replication after 24 hr
[6] = read-out: Inhibition of TMV replication after 48 hr
[7] = read-out: Inhibition of TMV replication after 72 hr
[8] = 1×10^-6 M in the TMV-infecting solution

Nc1ncnc2c1ncn2[C@@H]1O[C@H](COP(=O)(O)O)[C@@H](O)[C@H]1O [AMP]
inhibition at 1 µM [1]: 10% | Inhibition of TMV replication in tobacco leaf discs (in words) [2]: no inhibition of TMV replication | Inhibition of TMV replication in protoplasts (in words) [3]: less inhibitory; also recorded: some inhibition of TMV replication | inhibition at 0.1 µM [3, 5]: 22% | inhibition at 0.1 µM [3, 6]: 33%

Nc1ncnc2c1ncn2[C@@H]1O[C@H](CO)[C@@H](O)[C@H]1O [Adenosine, adenosine]
inhibition at 1 µM [1]: 0% | Inhibition of TMV replication in tobacco leaf discs (in words) [2]: no inhibition of TMV replication | Inhibition of TMV replication in protoplasts (in words) [3]: less inhibitory | inhibition at 0.1 µM [3, 5]: 14% | inhibition at 0.1 µM [3, 6]: 0% | Inhibition of TMV replication in protoplasts (in words) ([3]; listed as adenosine): some inhibition of TMV replication

Nc1ncnc2c1ncn2[C@@H]1O[C@H](COP(=O)(O)O)[C@@H](O)[C@@H]1O [Ara-AMP]
inhibition at 1 µM [1]: 0%

Nc1ncnc2c1ncn2[C@@H]1O[C@H](CO)[C@@H](O)[C@@H]1O [Ara-a]
inhibition at 1 µM [1]: 0%

Nc1ncnc2c1ncn2[C@@H]1O[C@H](COP(=O)(O)O)C[C@H]1O [Cordycepin monophosphate, Cordycepin 5'-monophosphate]
inhibition at 1 µM [1]: 0%

Nc1ncnc2c1ncn2[C@@H]1O[C@H](CO)C[C@H]1O [Cordycepin, cordycepin]
inhibition at 1 µM [1]: 0% | Inhibition of TMV replication in protoplasts (in words) [3]: less inhibitory | inhibition at 0.1 µM [3, 6]: 21% | inhibition at 0.1 µM [3, 7]: 32%

OC[C@H]1O[C@@H](n2cnc3c(O)ncnc32)[C@H](O)[C@@H]1O [Inosine, inosine]
inhibition at 1 µM [1]: 0% | Inhibition of TMV replication in protoplasts (in words) [3]: less inhibitory | inhibition at 0.1 µM [3, 6]: 22% | inhibition at 0.1 µM [3, 7]: 25%

Nc1ncnc2c1ccn2[C@@H]1O[C@H](COP(=O)(O)O)[C@@H](O)[C@H]1O [TuMP, tubercidin 5'-monophosphate]
inhibition at 1 µM [1]: 0%

Nc1ncnc2c1ccn2[C@@H]1O[C@H](CO)[C@@H](O)[C@H]1O [Tubercidin, tubercidin]
inhibition at 1 µM [1]: 0%

adenylyl-(2' 5')-adenylyl-(2' 5')-9-β-D-arabinofuranosyladenine [2',5'-A-A-ara-A]
Inhibition of TMV replication in N. glutinosa (in words) [1, 8]: potent inhibitors of TMV replication | Inhibition of TMV replication in N. glutinosa leaves [1]: 94% | Inhibition of TMV replication in N. glutinosa (in words) ([1]; no single concentration stated): inhibition of TMV replication | Inhibition of TMV replication in N. glutinosa (in words) ([1]; no single concentration stated, listed as A-A-ara-A): also inhibited TMV replication | Toxicity (chlorosis or necrosis) [4]: No toxicity (chlorosis or necrosis) was observed

adenylyl-(2' 5')-adenylyl-(2' 5)-tubercidin [2',5'-A-A-Tu]
Inhibition of TMV replication in N. glutinosa (in words) [1, 8]: potent inhibitors of TMV replication | Inhibition of TMV replication in N. glutinosa leaves [1]: 95% | Inhibition of TMV replication in N. glutinosa (in words) ([1]; no single concentration stated): also inhibited TMV replication | Toxicity (chlorosis or necrosis) [4]: No toxicity (chlorosis or necrosis) was observed
